{"source": "patent US4870097A", "about": "“Pharmaceutical use of derivatives of tryptophan” (priority 1984, dated 1989)", "key": {"[1]": {"tested_on": "tolerance induced by morphine", "test": "Antagonism to the development of tolerance to repeated administration of morphine HCl (tail flick)", "type": "in vivo, rats", "summary_of_the_method": "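Male rats, about 200-250, in groups of six, dosed every 24 h with 3 mg/kg morphine HCl i.p. plus 3 mg/kg i.p. test compound; saline-only and morphine-only groups run alongside. Pain threshold measured by tail flick at […], 30', 45' and 60' after each treatment.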"}, "[2]": {"tested_on": "guinea pig gall bladder contracted with CCK-8", "test": "Anti-CCK activity on guinea pig gall bladders in vitro", "type": "biochemical", "conditions": "CCK-8 10 ng/ml, concentration antagonising 50% of contracting effect", "summary_of_the_method": "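Longitudinal gall bladder strips in Krebs at 32° C, gassed with O2/CO2 95:5, were contracted with CCK-8 at 10 ng/ml and contractions recorded isometrically via force transducer. ED50 in mcg/ml is the compound concentration antagonising 50% of CCK contraction, derived by regression over at least three experiments.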"}, "[3]": {"tested_on": "activity of analgesic drugs", "test": "Hot plate test: potentiation of analgesic drugs", "type": "in vivo, rats", "method": "The method is that described by Eddy et al. (J. Pharmac. Exp. Ther. 107, 385 (1953)).\nGroups of five male rats having a weight of about 150 g and which have not been fasting are used.\nThe animals are placed on a metal plate which is on the bottom of a transparent cylinder heated to 55°±1° C. by an azeotropic boiling mixture (1:1 acetone-ethyl formate). The time which passes between the moment at which the animal is placed on the hot plate and the moment at which it licks its feet or tries to jump out of the cylinder is defined as the reaction time. The control reaction time is measured 10 and 5 minutes before the administration of the drugs and 10, 20, 30, 45, 60, 90 minutes afterwards. The animals are left on the plate for a maximum period of 30 seconds.\nThe response to the administration of the product is considered positive if at least a doubling of the normal reaction time is seen. The results obtained are given in Table 2 which records the groups treated, the dose administered and the stay times on the plate expressed as the number of positive responses over the number treated."}, "[4]": {"tested_on": "analgesic activity of morphine", "test": "Tail Flick Test: increase in the analgesic effect of morphine", "type": "in vivo, rats", "summary_of_the_method": "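Male non-fasted rats, 150-200 g; heat source (75 °C) on tail, latency to tail movement timed, 8 s cut-off. Measured before and 10, 20, 30, 45, 60, 90 min after analgesic dosing; percentage variation per animal, averaged over groups of five.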"}, "[5]": {"conditions": "days 0-7, 3 mg/kg + morphine (row Morphine: alone)"}, "[6]": {"conditions": "oxyphenylbutazone 50 + C. 33 5 mg/kg i.p."}, "[7]": {"conditions": "oxyphenylbutazone 50 + C. 33 10 mg/kg i.p."}, "[8]": {"conditions": "oxyphenylbutazone 50 + C. 33 20 mg/kg i.p."}}}
{"smiles": "O=C(N[C@@H](Cc1c[nH]c2ccccc12)C(=O)O)OC(c1ccccc1)c1ccccc1", "note": "[Compound 33]", "values": [{"measurement": "percentage variation in the latency time, day 0", "setting": "[1]; day 0, 3 mg/kg i.p. + morphine HCl 3 mg/kg i.p. (row Morphine: alone)", "value": 50.12, "unit": "%"}, {"measurement": "percentage variation in the latency time, day 1", "setting": "[1]; day 1, 3 mg/kg i.p. + morphine HCl 3 mg/kg i.p. (row Morphine: alone)", "value": 67.02, "unit": "%"}, {"measurement": "percentage variation in the latency time, day 2", "setting": "[1]; day 2, 3 mg/kg i.p. + morphine HCl 3 mg/kg i.p. (row Morphine: alone)", "value": 51.47, "unit": "%"}, {"measurement": "percentage variation in the latency time, day 3", "setting": "[1]; day 3, 3 mg/kg i.p. + morphine HCl 3 mg/kg i.p. (row Morphine: alone)", "value": 34.92, "unit": "%"}, {"measurement": "percentage variation in the latency time, day 4", "setting": "[1]; day 4, 3 mg/kg i.p. + morphine HCl 3 mg/kg i.p. (row Morphine: alone)", "value": 67.3, "unit": "%"}, {"measurement": "percentage variation in the latency time, day 5", "setting": "[1]; day 5, 3 mg/kg i.p. + morphine HCl 3 mg/kg i.p. (row Morphine: alone)", "value": 61.08, "unit": "%"}, {"measurement": "percentage variation in the latency time, day 6", "setting": "[1]; day 6, 3 mg/kg i.p. + morphine HCl 3 mg/kg i.p. (row Morphine: alone)", "value": 20.02, "unit": "%"}, {"measurement": "percentage variation in the latency time, day 7", "setting": "[1]; day 7, 3 mg/kg i.p. + morphine HCl 3 mg/kg i.p. (row Morphine: alone)", "value": 10.33, "unit": "%"}, {"measurement": "Area subtended (1)", "setting": "[1]; [5]", "value": 382.1, "unit": "Effect-Day"}, {"measurement": "regression line % Effect versus Day", "setting": "[1]; [5]", "value": "% Effect = - 5.38 Day + 64.12"}, {"measurement": "Area 1 / Area Morphine", "setting": "[1]; rat, in vivo, 3 mg/kg", "value": 2.72}, {"measurement": "Anti CCK-8 activity, ED50", "setting": "[2]", "value": 76.3, "unit": "µg/mL"}, {"measurement": "Positive Total X/25", "setting": "[3]; [6]", "value": 17}, {"measurement": "positive responses over the number treated, 10'", "setting": "[3]; [6]", "value": "3/5"}, {"measurement": "positive responses over the number treated, 20'", "setting": "[3]; [6]", "value": "3/5"}, {"measurement": "positive responses over the number treated, 30'", "setting": "[3]; [6]", "value": "4/5"}, {"measurement": "positive responses over the number treated, 45'", "setting": "[3]; [6]", "value": "4/5"}, {"measurement": "positive responses over the number treated, 60'", "setting": "[3]; [6]", "value": "3/5"}, {"measurement": "Positive Total X/25", "setting": "[3]; [7]", "value": 21}, {"measurement": "positive responses over the number treated, 10'", "setting": "[3]; [7]", "value": "3/5"}, {"measurement": "positive responses over the number treated, 20'", "setting": "[3]; [7]", "value": "5/5"}, {"measurement": "positive responses over the number treated, 30'", "setting": "[3]; [7]", "value": "5/5"}, {"measurement": "positive responses over the number treated, 45'", "setting": "[3]; [7]", "value": "5/5"}, {"measurement": "positive responses over the number treated, 60'", "setting": "[3]; [7]", "value": "3/5"}, {"measurement": "Positive Total X/25", "setting": "[3]; [8]", "value": 22}, {"measurement": "positive responses over the number treated, 10'", "setting": "[3]; [8]", "value": "4/5"}, {"measurement": "positive responses over the number treated, 20'", "setting": "[3]; [8]", "value": "5/5"}, {"measurement": "positive responses over the number treated, 30'", "setting": "[3]; [8]", "value": "5/5"}, {"measurement": "positive responses over the number treated, 45'", "setting": "[3]; [8]", "value": "4/5"}, {"measurement": "positive responses over the number treated, 60'", "setting": "[3]; [8]", "value": "4/5"}, {"measurement": "percentage variation in the latency of the pain sensation, 10'", "setting": "[4]; 10', compound 10 mg/kg i.p. + morphine 2 mg/kg (row Morphine: alone), ± S.E.", "value": "100.0 ± 0.0", "unit": "%"}, {"measurement": "percentage variation in the latency of the pain sensation, 20'", "setting": "[4]; 20', compound 10 mg/kg i.p. + morphine 2 mg/kg (row Morphine: alone), ± S.E.", "value": "87.6 ± 12.4", "unit": "%"}, {"measurement": "percentage variation in the latency of the pain sensation, 45'", "setting": "[4]; 45', compound 10 mg/kg i.p. + morphine 2 mg/kg (row Morphine: alone), ± S.E.", "value": "97.0 ± 3.0", "unit": "%"}, {"measurement": "percentage variation in the latency of the pain sensation, 60'", "setting": "[4]; 60', compound 10 mg/kg i.p. + morphine 2 mg/kg (row Morphine: alone), ± S.E.", "value": "65.7 ± 21.4", "unit": "%"}, {"measurement": "percentage variation in the latency of the pain sensation, 90'", "setting": "[4]; 90', compound 10 mg/kg i.p. + morphine 2 mg/kg (row Morphine: alone), ± S.E.", "value": "58.1 ± 21.7", "unit": "%"}, {"measurement": "M(10'-90') average percentage variation", "setting": "[4]; mean 10'-90', compound 10 mg/kg i.p. + morphine 2 mg/kg (row Morphine: alone)", "value": 82.9, "unit": "%"}, {"measurement": "Potency ratio relative to morphine alone", "setting": "[4]; rat, in vivo", "value": 2.78}, {"measurement": "percentage variation in the latency of the pain sensation, 30'", "setting": "[4]; rat, in vivo", "value": "89.2 ± 10.8"}]}
